Test results reported in the kinase profiling compilation of Christmann-Franck et al. (2016).

Assays:
Assay in all cases: KINOMEscan competition binding
Conditions in all cases: compound 2.0 µM
ACVR2A (human) = ACVR2A (human) (UniProt P27037)
AKT1 (human) = AKT1 (human) (UniProt P31749)
AKT2 (human) = AKT2 (human) (UniProt P31751)
AURKA (human) = AURKA (human) (UniProt O14965)
BMX (human) = BMX (human) (UniProt P51813)
BRSK2 (human) = BRSK2 (human) (UniProt Q8IWQ3)
CASK (human) = CASK (human) (UniProt O14936)
CIT (human) = CIT (human) (UniProt O14578)
CSNK2A1 (human) = CSNK2A1 (human) (UniProt P68400)
DDR2 (human) = DDR2 (human) (UniProt Q16832)
DMPK (human) = DMPK (human) (UniProt Q09013)
[1] = system: EGFR (human), P00533 [L861Q]
EPHA2 (human) = EPHA2 (human) (UniProt P29317)
EPHA8 (human) = EPHA8 (human) (UniProt P29322)
EPHB3 (human) = EPHB3 (human) (UniProt P54753)
FGFR2 (human) = FGFR2 (human) (UniProt P21802)
[2] = system: FLT3 (human), P36888 [D835Y]
ICK (human) = ICK (human) (UniProt Q9UPZ9)
IRAK4 (human) = IRAK4 (human) (UniProt Q9NWZ3)
LIMK2 (human) = LIMK2 (human) (UniProt P53671)
[3] = system: LRRK2 (human), Q5S007 [G2019S]
MAP3K3 (human) = MAP3K3 (human) (UniProt Q99759)
MAP4K5 (human) = MAP4K5 (human) (UniProt Q9Y4K4)
MAPK10 (human) = MAPK10 (human) (UniProt P53779)
MAPK12 (human) = MAPK12 (human) (UniProt P53778)
[4] = system: MET (human), P08581 [M1250T]
MLTK (human) = MLTK (human) (UniProt Q9NYL2)
MYLK3 (human) = MYLK3 (human) (UniProt Q32MK0)
MYO3B (human) = MYO3B (human) (UniProt Q8WXR4)
NLK (human) = NLK (human) (UniProt Q9UBE8)
PAK2 (human) = PAK2 (human) (UniProt Q13177)
PIK3CD (human) = PIK3CD (human) (UniProt O00329)
PRKACA (human) = PRKACA (human) (UniProt P17612)
ROS1 (human) = ROS1 (human) (UniProt P08922)
RPS6KA2 KD2 (human) = RPS6KA2 KD2 (human) (UniProt Q15349)
RPS6KA4 KD1 (human) = RPS6KA4 KD1 (human) (UniProt O75676)
SIK1 (human) = SIK1 (human) (UniProt P57059)
SNRK (human) = SNRK (human) (UniProt Q9NRH2)
SRPK2 (human) = SRPK2 (human) (UniProt P78362)
STK16 (human) = STK16 (human) (UniProt O75716)
STK17A (human) = STK17A (human) (UniProt Q9UEE5)
STK38 (human) = STK38 (human) (UniProt Q15208)
[5] = biological target: TYK2 JH1 catalytic (human) (UniProt P29597)

EPHB3 (human), sequence (P54753 whole entry, looked up): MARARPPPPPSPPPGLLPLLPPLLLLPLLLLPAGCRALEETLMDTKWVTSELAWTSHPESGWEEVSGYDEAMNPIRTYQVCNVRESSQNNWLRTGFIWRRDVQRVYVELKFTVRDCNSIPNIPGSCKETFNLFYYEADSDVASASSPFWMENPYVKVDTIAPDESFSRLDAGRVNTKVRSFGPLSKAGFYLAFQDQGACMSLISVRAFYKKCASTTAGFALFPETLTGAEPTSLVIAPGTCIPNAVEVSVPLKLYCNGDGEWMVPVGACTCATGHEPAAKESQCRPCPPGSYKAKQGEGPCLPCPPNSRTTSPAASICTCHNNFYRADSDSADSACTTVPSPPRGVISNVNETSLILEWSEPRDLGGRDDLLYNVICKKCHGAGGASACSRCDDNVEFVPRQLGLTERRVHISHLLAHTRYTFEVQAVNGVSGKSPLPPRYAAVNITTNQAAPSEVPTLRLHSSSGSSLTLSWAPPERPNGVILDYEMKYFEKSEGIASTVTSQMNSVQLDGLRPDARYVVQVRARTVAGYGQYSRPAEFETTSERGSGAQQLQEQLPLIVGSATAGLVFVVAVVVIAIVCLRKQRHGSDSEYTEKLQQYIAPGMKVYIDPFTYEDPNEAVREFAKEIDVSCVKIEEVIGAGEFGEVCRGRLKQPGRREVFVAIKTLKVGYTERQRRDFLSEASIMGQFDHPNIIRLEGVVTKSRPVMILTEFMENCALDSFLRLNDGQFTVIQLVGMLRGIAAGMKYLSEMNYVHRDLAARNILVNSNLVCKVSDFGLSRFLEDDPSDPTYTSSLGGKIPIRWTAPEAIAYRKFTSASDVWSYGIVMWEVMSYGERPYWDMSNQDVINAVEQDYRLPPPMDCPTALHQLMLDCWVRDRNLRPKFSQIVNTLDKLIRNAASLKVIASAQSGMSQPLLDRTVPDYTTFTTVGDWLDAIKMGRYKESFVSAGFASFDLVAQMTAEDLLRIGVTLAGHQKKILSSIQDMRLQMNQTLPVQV
RPS6KA2 KD2 (human), sequence (Q15349 whole entry, looked up): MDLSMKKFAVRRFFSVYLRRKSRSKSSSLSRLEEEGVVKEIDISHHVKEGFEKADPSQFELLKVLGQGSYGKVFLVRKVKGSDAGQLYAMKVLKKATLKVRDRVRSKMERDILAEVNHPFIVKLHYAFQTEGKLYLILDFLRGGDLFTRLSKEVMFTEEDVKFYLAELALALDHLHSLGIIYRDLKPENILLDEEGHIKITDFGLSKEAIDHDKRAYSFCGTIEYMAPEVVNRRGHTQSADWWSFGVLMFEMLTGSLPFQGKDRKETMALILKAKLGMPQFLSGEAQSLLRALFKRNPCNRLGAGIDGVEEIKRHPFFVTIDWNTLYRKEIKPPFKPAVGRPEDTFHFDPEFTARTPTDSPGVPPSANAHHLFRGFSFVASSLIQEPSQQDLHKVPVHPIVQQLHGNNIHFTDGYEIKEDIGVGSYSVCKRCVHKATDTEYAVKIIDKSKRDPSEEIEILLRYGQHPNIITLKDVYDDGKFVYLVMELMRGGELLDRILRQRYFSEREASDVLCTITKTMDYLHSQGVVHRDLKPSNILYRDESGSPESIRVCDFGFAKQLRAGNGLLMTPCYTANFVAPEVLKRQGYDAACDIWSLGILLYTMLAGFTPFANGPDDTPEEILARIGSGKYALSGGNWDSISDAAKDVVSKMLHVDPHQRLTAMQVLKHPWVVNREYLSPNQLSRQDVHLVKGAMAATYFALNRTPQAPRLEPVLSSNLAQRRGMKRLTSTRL
EPHA8 (human), sequence (P29322 whole entry, looked up): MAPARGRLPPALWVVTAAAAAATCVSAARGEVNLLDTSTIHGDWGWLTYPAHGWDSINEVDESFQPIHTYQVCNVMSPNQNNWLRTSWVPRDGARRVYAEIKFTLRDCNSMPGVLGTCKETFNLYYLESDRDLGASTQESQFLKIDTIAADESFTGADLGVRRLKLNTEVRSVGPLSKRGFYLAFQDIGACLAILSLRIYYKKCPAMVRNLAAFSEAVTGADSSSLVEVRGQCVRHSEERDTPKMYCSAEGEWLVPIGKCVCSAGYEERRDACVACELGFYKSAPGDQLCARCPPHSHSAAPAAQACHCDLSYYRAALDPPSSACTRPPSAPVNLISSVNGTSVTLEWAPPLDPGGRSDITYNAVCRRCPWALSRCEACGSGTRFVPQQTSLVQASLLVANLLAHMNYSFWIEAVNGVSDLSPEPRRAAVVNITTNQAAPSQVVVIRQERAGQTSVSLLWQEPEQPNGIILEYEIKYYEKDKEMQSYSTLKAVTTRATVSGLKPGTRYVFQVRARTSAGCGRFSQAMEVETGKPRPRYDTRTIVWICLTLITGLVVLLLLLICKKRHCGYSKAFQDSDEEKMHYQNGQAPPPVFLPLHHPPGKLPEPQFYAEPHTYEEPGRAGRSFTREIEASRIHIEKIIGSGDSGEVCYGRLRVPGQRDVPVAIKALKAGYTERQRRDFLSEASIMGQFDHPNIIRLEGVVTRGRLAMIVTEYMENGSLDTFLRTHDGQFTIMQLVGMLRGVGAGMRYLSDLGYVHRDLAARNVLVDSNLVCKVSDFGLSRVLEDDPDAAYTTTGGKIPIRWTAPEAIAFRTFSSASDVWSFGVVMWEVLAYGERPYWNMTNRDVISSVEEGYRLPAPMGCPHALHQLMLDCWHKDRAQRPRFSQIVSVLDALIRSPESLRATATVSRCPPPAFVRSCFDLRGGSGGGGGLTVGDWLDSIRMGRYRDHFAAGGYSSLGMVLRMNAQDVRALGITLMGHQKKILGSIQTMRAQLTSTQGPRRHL
STK38 (human), sequence (Q15208 whole entry, looked up): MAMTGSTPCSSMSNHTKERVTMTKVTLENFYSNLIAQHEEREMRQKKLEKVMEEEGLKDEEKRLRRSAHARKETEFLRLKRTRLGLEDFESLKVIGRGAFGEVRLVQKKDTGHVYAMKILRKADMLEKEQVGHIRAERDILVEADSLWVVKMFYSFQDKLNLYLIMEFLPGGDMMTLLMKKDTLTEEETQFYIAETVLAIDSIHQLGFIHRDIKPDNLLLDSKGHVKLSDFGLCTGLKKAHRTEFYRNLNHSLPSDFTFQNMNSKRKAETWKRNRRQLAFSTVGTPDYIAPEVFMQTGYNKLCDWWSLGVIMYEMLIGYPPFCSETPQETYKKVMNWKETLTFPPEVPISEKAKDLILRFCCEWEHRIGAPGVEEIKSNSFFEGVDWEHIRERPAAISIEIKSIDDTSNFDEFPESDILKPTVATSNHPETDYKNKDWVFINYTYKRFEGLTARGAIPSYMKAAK
SRPK2 (human), sequence (P78362 whole entry, looked up): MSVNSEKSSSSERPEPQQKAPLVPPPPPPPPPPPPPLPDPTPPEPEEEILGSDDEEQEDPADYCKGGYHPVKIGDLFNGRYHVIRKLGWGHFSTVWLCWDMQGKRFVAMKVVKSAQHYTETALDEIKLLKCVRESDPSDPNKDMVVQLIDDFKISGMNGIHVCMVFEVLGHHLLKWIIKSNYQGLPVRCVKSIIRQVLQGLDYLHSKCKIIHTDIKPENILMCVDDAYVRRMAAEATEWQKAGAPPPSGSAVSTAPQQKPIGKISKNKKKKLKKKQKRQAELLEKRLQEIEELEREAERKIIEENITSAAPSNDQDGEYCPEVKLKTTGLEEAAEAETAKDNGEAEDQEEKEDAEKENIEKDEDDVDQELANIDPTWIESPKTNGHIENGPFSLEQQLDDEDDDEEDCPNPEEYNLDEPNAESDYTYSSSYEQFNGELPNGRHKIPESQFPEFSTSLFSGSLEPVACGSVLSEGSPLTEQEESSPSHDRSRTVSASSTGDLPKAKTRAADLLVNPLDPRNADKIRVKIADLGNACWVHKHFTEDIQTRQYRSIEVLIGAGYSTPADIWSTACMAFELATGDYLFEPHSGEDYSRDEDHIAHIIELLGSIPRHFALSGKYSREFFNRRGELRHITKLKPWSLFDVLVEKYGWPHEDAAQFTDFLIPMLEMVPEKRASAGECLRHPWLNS
SNRK (human), sequence (Q9NRH2 whole entry, looked up): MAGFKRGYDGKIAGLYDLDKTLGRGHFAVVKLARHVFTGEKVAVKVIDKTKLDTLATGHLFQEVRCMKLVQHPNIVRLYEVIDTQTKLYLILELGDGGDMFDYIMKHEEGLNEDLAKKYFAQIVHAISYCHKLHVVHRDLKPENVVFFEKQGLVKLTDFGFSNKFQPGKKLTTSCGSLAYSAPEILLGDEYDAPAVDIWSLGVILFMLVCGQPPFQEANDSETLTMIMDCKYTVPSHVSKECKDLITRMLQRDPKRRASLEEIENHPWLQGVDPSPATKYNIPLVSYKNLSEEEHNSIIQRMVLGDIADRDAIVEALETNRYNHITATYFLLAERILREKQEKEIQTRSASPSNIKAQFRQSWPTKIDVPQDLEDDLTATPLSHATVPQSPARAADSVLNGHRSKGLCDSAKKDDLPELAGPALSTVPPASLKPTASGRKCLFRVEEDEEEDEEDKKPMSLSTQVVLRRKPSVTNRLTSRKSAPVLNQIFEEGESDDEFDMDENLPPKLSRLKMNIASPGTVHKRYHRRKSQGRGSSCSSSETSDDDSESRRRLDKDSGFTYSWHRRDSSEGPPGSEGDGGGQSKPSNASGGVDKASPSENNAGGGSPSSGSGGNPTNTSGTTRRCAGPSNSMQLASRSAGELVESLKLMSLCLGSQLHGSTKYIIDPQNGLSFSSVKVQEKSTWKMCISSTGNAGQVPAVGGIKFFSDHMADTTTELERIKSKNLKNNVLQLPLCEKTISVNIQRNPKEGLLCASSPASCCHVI
CSNK2A1 (human), sequence (P68400 whole entry, looked up): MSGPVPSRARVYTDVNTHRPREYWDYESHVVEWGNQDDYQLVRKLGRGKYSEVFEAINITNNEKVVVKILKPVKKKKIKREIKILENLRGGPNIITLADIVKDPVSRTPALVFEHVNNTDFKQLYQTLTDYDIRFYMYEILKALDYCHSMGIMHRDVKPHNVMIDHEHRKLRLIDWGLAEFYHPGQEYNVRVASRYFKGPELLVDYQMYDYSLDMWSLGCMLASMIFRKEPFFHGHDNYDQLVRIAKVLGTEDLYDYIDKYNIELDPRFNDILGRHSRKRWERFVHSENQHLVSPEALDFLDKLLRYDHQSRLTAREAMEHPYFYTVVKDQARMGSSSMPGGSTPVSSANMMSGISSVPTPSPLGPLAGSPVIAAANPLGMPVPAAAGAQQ

Question: Which kinase still bound, per cent of control (ACVR2A (human)) does the source give for `N#Cc1ccc2ncnc(NCCc3ccc4ccccc4c3)c2c1` here?
Answer: Its kinase still bound, per cent of control is 100%.

Question: What about the kinase still bound, per cent of control (AKT1 (human)) of the same molecule?
Answer: The kinase still bound, per cent of control was 81%.

Question: And the kinase still bound, per cent of control (AKT2 (human))?
Answer: Its kinase still bound, per cent of control is 100%.

Question: What about the kinase still bound, per cent of control (AURKA (human)) of the same molecule?
Answer: The kinase still bound, per cent of control was 94%.

Question: And the kinase still bound, per cent of control (BMX (human))?
Answer: The kinase still bound, per cent of control was 97%.

Question: And the kinase still bound, per cent of control (BRSK2 (human))?
Answer: The kinase still bound, per cent of control was 100%.

Question: What about the kinase still bound, per cent of control (CASK (human)) of the same molecule?
Answer: The kinase still bound, per cent of control was 100%.

Question: And the kinase still bound, per cent of control (CIT (human))?
Answer: Its kinase still bound, per cent of control is 91%.

Question: What about the kinase still bound, per cent of control (CSNK2A1 (human)) of the same molecule?
Answer: The kinase still bound, per cent of control was 92%.

Question: And the kinase still bound, per cent of control (DDR2 (human))?
Answer: Its kinase still bound, per cent of control is 100%.

Question: And the kinase still bound, per cent of control (DMPK (human))?
Answer: Its kinase still bound, per cent of control is 100%.

Question: What about the kinase still bound, per cent of control [1] of the same molecule?
Answer: The kinase still bound, per cent of control was 60%.

Question: And the kinase still bound, per cent of control (EPHA2 (human))?
Answer: Its kinase still bound, per cent of control is 100%.

Question: What about the kinase still bound, per cent of control (EPHA8 (human)) of the same molecule?
Answer: The kinase still bound, per cent of control was 87%.

Question: What about the kinase still bound, per cent of control (EPHB3 (human)) of the same molecule?
Answer: Its kinase still bound, per cent of control is 100%.

Question: What about the kinase still bound, per cent of control (FGFR2 (human)) of the same molecule?
Answer: Its kinase still bound, per cent of control is 90%.

Question: And the kinase still bound, per cent of control [2]?
Answer: Its kinase still bound, per cent of control is 94%.

Question: And the kinase still bound, per cent of control (ICK (human))?
Answer: Its kinase still bound, per cent of control is 100%.

Question: What about the kinase still bound, per cent of control (IRAK4 (human)) of the same molecule?
Answer: Its kinase still bound, per cent of control is 100%.

Question: And the kinase still bound, per cent of control (LIMK2 (human))?
Answer: The kinase still bound, per cent of control was 94%.

Question: What about the kinase still bound, per cent of control [3] of the same molecule?
Answer: Its kinase still bound, per cent of control is 100%.

Question: What about the kinase still bound, per cent of control (MAP3K3 (human)) of the same molecule?
Answer: The kinase still bound, per cent of control was 100%.

Question: And the kinase still bound, per cent of control (MAP4K5 (human))?
Answer: The kinase still bound, per cent of control was 95%.

Question: And the kinase still bound, per cent of control (MAPK10 (human))?
Answer: Its kinase still bound, per cent of control is 100%.

Question: What about the kinase still bound, per cent of control (MAPK12 (human)) of the same molecule?
Answer: The kinase still bound, per cent of control was 100%.

Question: What about the kinase still bound, per cent of control [4] of the same molecule?
Answer: Its kinase still bound, per cent of control is 73%.

Question: What about the kinase still bound, per cent of control (MLTK (human)) of the same molecule?
Answer: The kinase still bound, per cent of control was 100%.

Question: What about the kinase still bound, per cent of control (MYLK3 (human)) of the same molecule?
Answer: Its kinase still bound, per cent of control is 79%.

Question: And the kinase still bound, per cent of control (MYO3B (human))?
Answer: Its kinase still bound, per cent of control is 96%.

Question: And the kinase still bound, per cent of control (NLK (human))?
Answer: The kinase still bound, per cent of control was 85%.

Question: And the kinase still bound, per cent of control (PAK2 (human))?
Answer: Its kinase still bound, per cent of control is 82%.

Question: And the kinase still bound, per cent of control (PIK3CD (human))?
Answer: Its kinase still bound, per cent of control is 100%.

Question: And the kinase still bound, per cent of control (PRKACA (human))?
Answer: The kinase still bound, per cent of control was 100%.

Question: What about the kinase still bound, per cent of control (ROS1 (human)) of the same molecule?
Answer: The kinase still bound, per cent of control was 95%.

Question: What about the kinase still bound, per cent of control (RPS6KA2 KD2 (human)) of the same molecule?
Answer: The kinase still bound, per cent of control was 85%.

Question: And the kinase still bound, per cent of control (RPS6KA4 KD1 (human))?
Answer: Its kinase still bound, per cent of control is 83%.

Question: And the kinase still bound, per cent of control (SIK1 (human))?
Answer: Its kinase still bound, per cent of control is 100%.

Question: And the kinase still bound, per cent of control (SNRK (human))?
Answer: The kinase still bound, per cent of control was 36%.

Question: And the kinase still bound, per cent of control (SRPK2 (human))?
Answer: The kinase still bound, per cent of control was 100%.

Question: What about the kinase still bound, per cent of control (STK16 (human)) of the same molecule?
Answer: The kinase still bound, per cent of control was 51%.

Question: And the kinase still bound, per cent of control (STK17A (human))?
Answer: Its kinase still bound, per cent of control is 100%.

Question: What about the kinase still bound, per cent of control (STK38 (human)) of the same molecule?
Answer: The kinase still bound, per cent of control was 100%.

Question: What about the kinase still bound, per cent of control [5] of the same molecule?
Answer: The kinase still bound, per cent of control was 93%.
